Source: patent US7396837B2, “Antitumoral analogs of lamellarins” (Pharma Mar, S.A.U., priority 2002, dated 2008)

Assays:
A-549 = experiment: SRB colorimetric cell growth inhibition assay, A-549; assay type: cell-based; conditions: Homo sapiens, A549, A-549
Procedure, shortened: (§1)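 Continuous-exposure format, human tumour lines. SRB colour reaction quantifies growth/viability. Triplicate wells → mean ± SD → GI, TGI, LC.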

K-562 = experiment: SRB colorimetric cell growth inhibition assay, K-562; assay type: cell-based; conditions: Homo sapiens, K562, K-562
Procedure, shortened: as §1

SK-MEL-28 = experiment: SRB colorimetric cell growth inhibition assay, SK-MEL-28; assay type: cell-based; conditions: Homo sapiens, SK-MEL-28, MEL-28
Procedure, shortened: as §1

LNCaP = experiment: SRB colorimetric cell growth inhibition assay, LNCaP; assay type: cell-based; conditions: Homo sapiens, LNCaP, LN-caP
Procedure, shortened: as §1

DU-145 = experiment: SRB colorimetric cell growth inhibition assay, DU-145; assay type: cell-based; conditions: Homo sapiens, DU-145, DU-145
Procedure, shortened: as §1

human topoisomerase I = target: T1, human topoisomerase I (Homo sapiens, UniProt P11387); experiment: Topoisomerase I DNA relaxation assay (supercoiled plasmid DNA); assay type: biochemical; conditions: supercoiled plasmid DNA, each compound tested at 1 μM, agarose gel with ethidium bromide
T1 sequence (P11387 1-765): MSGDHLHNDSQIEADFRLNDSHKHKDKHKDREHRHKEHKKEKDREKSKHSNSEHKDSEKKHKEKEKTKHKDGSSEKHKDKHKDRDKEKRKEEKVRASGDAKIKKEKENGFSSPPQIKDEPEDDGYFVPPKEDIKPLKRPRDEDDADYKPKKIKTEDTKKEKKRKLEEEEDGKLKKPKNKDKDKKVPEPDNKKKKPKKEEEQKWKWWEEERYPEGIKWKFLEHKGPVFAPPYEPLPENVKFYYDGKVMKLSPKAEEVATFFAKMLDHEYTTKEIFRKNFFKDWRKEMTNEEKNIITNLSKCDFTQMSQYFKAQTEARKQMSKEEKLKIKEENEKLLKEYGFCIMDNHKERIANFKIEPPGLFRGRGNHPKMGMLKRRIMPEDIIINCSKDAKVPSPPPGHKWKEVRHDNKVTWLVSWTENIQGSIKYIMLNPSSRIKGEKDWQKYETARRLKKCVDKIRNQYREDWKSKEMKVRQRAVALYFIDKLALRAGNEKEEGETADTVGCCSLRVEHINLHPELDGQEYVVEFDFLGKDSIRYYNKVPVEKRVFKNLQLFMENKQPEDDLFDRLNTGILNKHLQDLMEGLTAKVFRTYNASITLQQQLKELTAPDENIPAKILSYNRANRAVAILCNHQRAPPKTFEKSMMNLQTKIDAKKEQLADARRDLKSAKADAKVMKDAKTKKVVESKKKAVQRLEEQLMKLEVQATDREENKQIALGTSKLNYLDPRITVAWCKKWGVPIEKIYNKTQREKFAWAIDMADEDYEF
Procedure, shortened: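 Supercoiled plasmid DNA was relaxed by human topoisomerase I with or without test compound at 1 μM. Products were resolved by agarose gel electrophoresis with ethidium bromide staining.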

SK-BR-3 = experiment: SRB colorimetric cell growth inhibition assay, SK-BR-3; assay type: cell-based; conditions: Homo sapiens, SK-BR-3, SK-BR-3
Procedure, shortened: as §1

IGROV = experiment: SRB colorimetric cell growth inhibition assay, IGROV; assay type: cell-based; conditions: Homo sapiens, IGROV
Procedure, shortened: as §1

HT-29 = experiment: SRB colorimetric cell growth inhibition assay, HT-29; assay type: cell-based; conditions: Homo sapiens, HT-29, HT-29
Procedure, shortened: as §1

IGROV-ET = experiment: SRB colorimetric cell growth inhibition assay, IGROV-ET (ET-743 resistant); assay type: cell-based; conditions: Homo sapiens, IGROV-ET
Procedure, shortened: as §1

LoVo = experiment: SRB colorimetric cell growth inhibition assay, LoVo; assay type: cell-based; conditions: Homo sapiens, LoVo
Procedure, shortened: as §1

SKOV-3 = experiment: SRB colorimetric cell growth inhibition assay, SKOV-3; assay type: cell-based; conditions: Homo sapiens
Procedure, shortened: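 Sulforhodamine B colorimetric assay of cell growth and viability, mean ± SD of triplicate wells. Parameters derived: GI (growth inhibition), TGI (total growth inhibition, cytostatic) and LC (cell killing, cytotoxic).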

LoVo-Dox = experiment: SRB colorimetric cell growth inhibition assay, LoVo-Dox (MDR); assay type: cell-based; conditions: Homo sapiens, LOVO-DOX
Procedure, shortened: as §1

PANC-1 = experiment: SRB colorimetric cell growth inhibition assay, PANC-1; assay type: cell-based; conditions: Homo sapiens, PANC-1, PANC-1
Procedure, shortened: as §1

SMILES: COc1cc(-c2c3c4cc(OC)c(OC(=O)[C@@H]5CCCN5)cc4oc(=O)c3n3ccc4cc(OC(=O)[C@@H]5CCCN5)c(OC)cc4c23)ccc1OC(=O)[C@@H]1CCCN1 [Compound 33]
- GI50 (A-549; GI=growth inhibition, read-out: GI50 A-549): 37.9 nM
- CC50 (A-549; LC=cell killing (cytotoxic effect), read-out: LC50 A-549): 883 nM
- IC (TGI) (A-549; TGI=total growth inhibition (cytostatic effect), read-out: TGI A-549): 154 nM
- GI50 (K-562; GI=growth inhibition, read-out: GI50 K-562): 5.96 nM
- CC50 (K-562; LC=cell killing (cytotoxic effect), read-out: LC50 K-562): 4030 nM
- IC (TGI) (K-562; TGI=total growth inhibition (cytostatic effect), read-out: TGI K-562): 918 nM
- GI50 (SK-MEL-28; GI=growth inhibition, read-out: GI50 MEL-28): 41.1 nM
- CC50 (SK-MEL-28; cell killing (cytotoxic effect), read-out: LC50 MEL-28): 2480 nM
- IC (TGI) (SK-MEL-28; total growth inhibition (cytostatic effect), read-out: TGI MEL-28): 198 nM
- GI50 (LNCaP; GI=growth inhibition, read-out: GI50 LN-caP): 39.7 nM
- CC50 (LNCaP; cell killing (cytotoxic effect), read-out: LC50 LN-caP): 423 nM
- IC (TGI) (LNCaP; total growth inhibition (cytostatic effect), read-out: TGI LN-caP): 155 nM
- GI50 (DU-145; GI=growth inhibition, read-out: GI50 DU-145): 18.6 nM
- CC50 (DU-145; cell killing (cytotoxic effect), read-out: LC50 DU-145): 367 nM
- IC (TGI) (DU-145; total growth inhibition (cytostatic effect), read-out: TGI DU-145): 46 nM
- stimulation of DNA cleavage by topoisomerase I / inhibition of topoisomerase I (nicked DNA band) in DNA relaxation assay (human topoisomerase I): marked inhibition of topoisomerase I
- GI50 (SK-BR-3; GI=growth inhibition, read-out: GI50 SK-BR-3): 30.5 nM
- CC50 (SK-BR-3; cell killing (cytotoxic effect), read-out: LC50 SK-BR-3): 1440 nM
- IC (TGI) (SK-BR-3; total growth inhibition (cytostatic effect), read-out: TGI SK-BR-3): 168 nM
- GI50 (IGROV; GI=growth inhibition, read-out: GI50 IGROV): 49.6 nM
- CC50 (IGROV; cell killing (cytotoxic effect), read-out: LC50 IGROV): 4760 nM
- IC (TGI) (IGROV; total growth inhibition (cytostatic effect), read-out: TGI IGROV): 500 nM
- GI50 (HT-29; GI=growth inhibition, read-out: GI50 HT-29): 1340 nM
- CC50 (HT-29; LC=cell killing (cytotoxic effect), read-out: LC50 HT-29): 8740 nM
- IC (TGI) (HT-29; TGI=total growth inhibition (cytostatic effect), read-out: TGI HT-29): 3420 nM
- GI50 (IGROV-ET; GI=growth inhibition, read-out: GI50 IGROV-ET): 78.1 nM
- CC50 (IGROV-ET; cell killing (cytotoxic effect), read-out: LC50 IGROV-ET): 8830 nM
- IC (TGI) (IGROV-ET; total growth inhibition (cytostatic effect), read-out: TGI IGROV-ET): 589 nM
- GI50 (LoVo; GI=growth inhibition, read-out: GI50 LOVO): 153 nM
- CC50 (LoVo; LC=cell killing (cytotoxic effect), read-out: LC50 LOVO): 726 nM
- IC (TGI) (LoVo; TGI=total growth inhibition (cytostatic effect), read-out: TGI LOVO): 333 nM
- GI50 (SKOV-3; SK-OV-3, SKOV-3, GI=growth inhibition, read-out: GI50 SKOV-3): 39.1 nM
- LC50 (concentration causing 50% net cell killing) (SKOV-3; SK-OV-3, SKOV-3, cell killing (cytotoxic effect), read-out: LC50 SKOV-3): 5030 nM
- IC (TGI) (SKOV-3; SK-OV-3, SKOV-3, total growth inhibition (cytostatic effect), read-out: TGI SKOV-3): 228 nM
- GI50 (LoVo-Dox; GI=growth inhibition, read-out: GI50 LOVO-DOX): 198 nM
- CC50 (LoVo-Dox; LC=cell killing (cytotoxic effect), read-out: LC50 LOVO-DOX): 4330 nM
- IC (TGI) (LoVo-Dox; TGI=total growth inhibition (cytostatic effect), read-out: TGI LOVO-DOX): 558 nM
- GI50 (PANC-1; GI=growth inhibition, read-out: GI50 PANC-1): 89.2 nM
- CC50 (PANC-1; LC=cell killing (cytotoxic effect), read-out: LC50 PANC-1): 8440 nM
- IC (TGI) (PANC-1; TGI=total growth inhibition (cytostatic effect), read-out: TGI PANC-1): 1060 nM
